Test results reported in PubChem BioAssay AID434972 (The Scripps Research Institute Molecular Screening Center, 2010).
Active and inactive are the calls of the source.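 How the source made its calls: active means inhibition of WEE1 degradation of at least 19%, seen as raised luminescence; inactive means the rest.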

molecular target: Wee1-like protein kinase (Homo sapiens) (UniProt P30291); assay: WEE1-luciferase stabilization in HeLa cells – cell-based, WEE1K328M-luciferase, luminescence, powder samples, SAR follow-up (AID 434972); settings: HeLa WEE1K328M-luciferase stability, at 0.25 µM, active compounds read high
Sequence (P30291 whole entry K328M): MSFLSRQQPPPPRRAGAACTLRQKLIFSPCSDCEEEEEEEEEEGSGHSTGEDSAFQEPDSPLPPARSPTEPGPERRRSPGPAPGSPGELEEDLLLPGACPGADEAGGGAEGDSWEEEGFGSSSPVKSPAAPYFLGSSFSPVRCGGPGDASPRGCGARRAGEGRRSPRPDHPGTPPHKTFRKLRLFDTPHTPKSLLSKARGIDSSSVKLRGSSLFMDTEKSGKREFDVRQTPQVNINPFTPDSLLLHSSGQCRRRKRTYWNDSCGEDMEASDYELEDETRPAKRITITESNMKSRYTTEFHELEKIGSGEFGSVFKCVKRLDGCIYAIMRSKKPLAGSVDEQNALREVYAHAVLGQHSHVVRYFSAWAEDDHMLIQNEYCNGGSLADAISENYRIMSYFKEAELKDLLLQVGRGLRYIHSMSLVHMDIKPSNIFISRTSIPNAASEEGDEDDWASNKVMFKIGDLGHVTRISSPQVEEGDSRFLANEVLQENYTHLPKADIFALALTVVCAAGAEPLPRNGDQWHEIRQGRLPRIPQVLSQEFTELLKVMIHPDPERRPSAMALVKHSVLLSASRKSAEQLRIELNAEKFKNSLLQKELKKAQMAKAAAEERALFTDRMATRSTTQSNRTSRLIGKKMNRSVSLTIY

| SMILES | inhibition of WEE1 degradation |
| --- | --- |
| CCOC(=O)c1cccc2[nH]c(CNc3nc(N4CCOCC4)nc4c3ncn4C(C)C)nc12 | 17% (inactive) |
| CC(C)n1cnc2c(NCc3nc4ccccc4[nH]3)nc(Nc3cccnc3)nc21 | 3.4% (inactive) |
| c1ccc2[nH]c(CNc3nc(Nc4cnccn4)nc4c3ncn4-c3ccsc3)nc2c1 | 2.9% (inactive) |
| c1ccc2[nH]c(CNc3nc(N4CCNCC4)nc4c3ncn4-c3ccsc3)nc2c1 | 14.5% (inactive) |
| CN1CCN(c2nc(NCc3nc4ccccc4[nH]3)c3ncn(-c4ccsc4)c3n2)CC1 | 14.1% (inactive) |
| c1ccc2[nH]c(CNc3nc(NCCN4CCOCC4)nc4c3ncn4-c3ccsc3)nc2c1 | 8.1% (inactive) |
| C=CCN(CC=C)c1nc(NCc2nc3ccccc3[nH]2)c2ncn(-c3ccsc3)c2n1 | 8.2% (inactive) |
| CC(C)n1cnc2c(NCc3nc4ccccc4[nH]3)nc(Nc3ccncn3)nc21 | 4% (inactive) |
| Cc1ccnc(NC(=O)CCCOc2cc(=O)n(C)c3ccccc23)c1 | 6.4% (inactive) |
| C[C@@H](Nc1nc(NCc2nc3ccccc3[nH]2)c2ncn(-c3ccsc3)c2n1)c1ccccc1 | 9.2% (inactive) |
| c1ccc(N2CCN(c3nc(NCc4nc5ccccc5[nH]4)c4ncn(-c5ccsc5)c4n3)CC2)nc1 | 4% (inactive) |
| CC(C)n1cnc2c(NCc3nc4ccccc4[nH]3)nc(N3CCOCC3)nc21 | 4.1% (inactive) |
| c1ccc2[nH]c(CNc3nc(N4CCCCC4)nc4c3ncn4-c3ccsc3)nc2c1 | 10.5% (inactive) |
| CC(C)n1cnc2c(NCc3nc4c([N+](=O)[O-])cccc4[nH]3)nc(N3CCOCC3)nc21 | 111% |
| CC(C)n1cnc2c(NCc3nc4ccccc4[nH]3)nc(Nc3cnccn3)nc21 | 5.3% (inactive) |
| c1ccc(-n2cnc3c(NCc4nc5ccccc5[nH]4)nc(N4CCOCC4)nc32)cc1 | 4% (inactive) |
| O=C(NC1CC1)c1ccc(-c2nc(NCc3nc4ccccc4[nH]3)c3ncn(-c4ccsc4)c3n2)cc1 | 3.6% (inactive) |
| c1ccc2c(c1)CCN2c1nc(NCc2nc3ccccc3[nH]2)c2ncn(-c3ccsc3)c2n1 | 7.9% (inactive) |
| OCCN1CCN(c2nc(NCc3nc4ccccc4[nH]3)c3ncn(-c4ccsc4)c3n2)CC1 | 10% (inactive) |
| NCCN1CCN(c2nc(NCc3nc4ccccc4[nH]3)c3ncn(-c4ccsc4)c3n2)CC1 | 8.6% (inactive) |

Continued, values first:

| inhibition of WEE1 degradation | SMILES |
| --- | --- |
| 13.4% (inactive) | FC(F)(F)c1cc(Br)c2nc(CNc3nc(N4CCOCC4)nc4c3ncn4-c3ccsc3)[nH]c2c1 |
| 10.8% (inactive) | FC(F)(F)c1cccc2[nH]c(CNc3nc(N4CCOCC4)nc4c3ncn4-c3ccsc3)nc12 |
| 15.6% (inactive) | Nc1cccc2[nH]c(CNc3nc(N4CCOCC4)nc4c3ncn4-c3ccsc3)nc12 |
| 85.9% | N#Cc1ccc2nc(CNc3nc(N4CCOCC4)nc4c3ncn4-c3ccsc3)[nH]c2c1 |
| 8.3% (inactive) | Nc1ccc2nc(CNc3nc(N4CCOCC4)nc4c3ncn4-c3ccsc3)[nH]c2c1 |
| 79.5% | COc1ccc2nc(CNc3nc(N4CCOCC4)nc4c3ncn4-c3ccsc3)[nH]c2c1 |
| 101% | Clc1ccc2nc(CNc3nc(N4CCOCC4)nc4c3ncn4-c3ccsc3)[nH]c2c1 |
| 18.7% (inactive) | O=[N+]([O-])c1ccc2nc(CNc3nc(N4CCOCC4)nc4c3ncn4-c3ccsc3)[nH]c2c1 |
| 100% | O=[N+]([O-])c1cccc2[nH]c(CNc3nc(N4CCOCC4)nc4c3ncn4-c3ccsc3)nc12 |
| 9.9% (inactive) | c1ccc2[nH]c(CNc3nc(N4CCCC4)nc4c3ncn4-c3ccsc3)nc2c1 |
| 22% | c1cnc2ccc3[nH]c(CNc4nc(N5CCOCC5)nc5c4ncn5-c4ccsc4)nc3c2c1 |
| 97.3% | CCOC(=O)c1cccc2[nH]c(CNc3nc(N4CCOCC4)nc4c3ncn4-c3ccsc3)nc12 |
| 11.4% (inactive) | c1ccc2[nH]c(CNc3nc(N4CCSCC4)nc4c3ncn4-c3ccsc3)nc2c1 |
| 81.4% | Fc1ccc2nc(CNc3nc(N4CCOCC4)nc4c3ncn4-c3ccsc3)[nH]c2c1 |
| 48.3% | c1ccc2cc3[nH]c(CNc4nc(N5CCOCC5)nc5c4ncn5-c4ccsc4)nc3cc2c1 |
| 56.8% | c1ccc2[nH]c(CNc3nc(N4CCOCC4)nc4c3ncn4-c3ccsc3)nc2c1 |
| 46.3% | FC(F)(F)c1ccc2nc(CNc3nc(N4CCOCC4)nc4c3ncn4-c3ccsc3)[nH]c2c1 |
